From patent US20170094972A1, “Compounds and Compositions Having Knock-Down Activity Against Insect Pests” (priority 2015, published 2017)
Like-named read-outs stand apart in the source and are kept apart here.

How the values were obtained:
Assay type in all cases: in vivo
Anopheles stephensi [1] = experiment: 6 well plate test, knockdown after 1 hour and mortality after 24 and 48 hours; parameters: KD: unit not given here; details: for KD: after 1 hour
Protocol: The individual wells of six (6) well tissue culture plates were treated with […] of an ethanol solution containing a test compound at a defined concentration. Once the deposits were dry, ten non-blood fed adult female Anopheles stephensi (between two to five day old) were added to each well, and sustained with a 10% sucrose solution in a cotton wool plug. Assessment of the knockdown after 1 hour (Tables B1-B10), and mortality after 24 and 48 hours (Tables B1-B4) was carried out.
(§1) In case of multiple tests, the mean value is reported.

female mosquitoes = experiment: Tunnel study based on WHOPES tunnel tests with Hemotek membrane feeding device; details: for mortality at 10 mg/m2: 24 h
Protocol: Based on the “WHOPES tunnel tests” (described at http://apps.who.int/iris/bitstream/10665/80270/1/9789241505277_eng.pdf), except that live guniea pig baits were replaced with a Hemotek membrane feeding device, filled with blood and kept constant at 37° C. to mimic a human host. All tests were done under standardised laboratory controlled conditions (27° C.+2° C. under subdued light). The tunnel apparatus was a 60×30×30 cm glass case open at each end and the floor was lined with wet blue roll in order to maintain humidity. A 30×30×30 cm cage, covered in untreated netting, was placed at the release end. The test nets were cut to 25×25 cm squares and fitted into cardboard frames that allow a 20×20 cm area to be exposed. Nine holes, 1 cm in diameter, were made in the netting in the pattern specified in the WHOPES test. The frames were then fitted into the tunnel one third of the way down its length. A Hemotek device, filled with blood and kept constant at 37° C. to mimic a human host, was placed in the smaller area of the glass tunnel behind the test netting, and the end of the tunnel closed with a netting screen. A human sat at the Hemotek end of the tunnels for the duration of the test. At the start of the test (13.30-14.00), 100 female mosquitoes (non-blood fed, aged 5-8 days) were introduced into the cage. Mosquitoes are free to fly in the tunnel but have to make contact with the piece of netting and locate the holes in it before passing through to reach the bait. After 7 hours (20.30-21.00) the mosquitoes were counted in each section of the tunnel. The number of mosquitoes knocked down and blood fed were recorded. Blood-feeding inhibition was assessed by comparing the proportion of blood-fed females (alive or dead) in treated and control tests. Four tunnels were run simultaneously each day, with one control containing untreated netting included with all runs. Three replicates were carried out per treatment.
as §1

adult female mosquitoes = experiment: Bottle assay based on CDC bottle assay
Protocol: Based on the “CDC bottle assay” (described at http://www.cdc.gov/malaria/resources/pdf/fsp/ir_manual/ir_cdc_bioassay_en.pdf) 1 ml of ethanol containing a test compound at a defined concentration was added to a 250 ml glass bottle and the bottles were placed on a rolling table to coat the inner surfaces as the solvent evaporated. Once dry, twenty five non-blood fed adult female mosquitoes of the appropriate species and strains (each three day old) were aspirated from the stock culture and gently blown into the exposure bottles. The lid of the bottle was replaced and the bottle placed upright out of direct sun light under standard culture conditions, nominally 28° C. and 60-80% relative humidity.
A stopwatch was started, and the assessment of the knock-down were made after 15 mins and 60 minutes. A mosquito was said to be knocked down if it was unable to stand, following the CDC definition. The bottles were replaced in an upright position when not being assessed.
After one hour the mosquitoes were carefully removed from the bottle with an aspirator and placed in a recovery cup. The mosquitoes were supplied with a 10% sucrose solution on a cotton wool bung, and stored under culture conditions. Assessments of the mortality were made after 24 hours and 48 hours (B15).
Each treatment was replicated a minimum of four times, with the mean knockdown or mortality recorded. In each study, a set of bottles was infested with a known insecticide susceptible strain of mosquitoes from the same genera as the resistant strains.

Aedes aegypti = experiment: 12 well plate knockdown test; details: 1 h, read-out: Aedes aegypti 1 hour % KD
Protocol: (§2) The individual wells of a twelve (12) well tissue culture plates were treated with 100 μl of an ethanol solution containing a test compound at a defined concentration. Once the deposits were dry, five non-blood fed adult female Aedes aegypti or Anopheles stephensi (between two to five day old) were added to each well, and sustained with a 10% sucrose solution in a cotton wool plug. Assessment of the knockdown after 1 hour was carried out. Where multiple replicates of a treatment have been undertaken, the mean of those replicates is reported.

Anopheles stephensi [2] = experiment: 12 well plate knockdown test; details: 1 h, read-out: Anopheles stephensi 1 hour % KD
Protocol: as §2

[3] = Table B11, Rate 10 mg/m2, 24 hours, read-out: % Mortality
[4] = Table B1, Comp. (I.3) alone 0.1 ppm
[5] = Table B2, Comp. (I.3) alone 0.5 ppm
[6] = Table B3, Comp. (I.3) alone 0.5 ppm
[7] = Table B4, Comp. (I.3) alone 0.5 ppm

CC1(C)C(C=C(Cl)Cl)C1C(=O)OCc1cccc(Oc2ccccc2)c1 (stereo not shown) [Permethrin]
24 hr mort (Anopheles stephensi [1]; Table B1, 0.0625 ppm alone): 0.0 | 48 hr mort (Anopheles stephensi [1]; Table B1, 0.0625 ppm alone): 0.0 | KD (Anopheles stephensi [1]; Table B1, 0.0625 ppm alone): 0.0 | 24 hr mort (Anopheles stephensi [1]; Table B1, 0.125 ppm alone): 3.3 | 48 hr mort (Anopheles stephensi [1]; Table B1, 0.125 ppm alone): 0.0 | KD (Anopheles stephensi [1]; Table B1, 0.125 ppm alone): 0.0 | 24 hr mort (Anopheles stephensi [1]; Table B1, 0.25 ppm alone): 16.7 | 48 hr mort (Anopheles stephensi [1]; Table B1, 0.25 ppm alone): 20.0 | KD (Anopheles stephensi [1]; Table B1, 0.25 ppm alone): 0.0 | 24 hr mort (Anopheles stephensi [1]; Table B1, 0.5 ppm alone): 23.3 | 48 hr mort (Anopheles stephensi [1]; Table B1, 0.5 ppm alone): 30.0 | KD (Anopheles stephensi [1]; Table B1, 0.5 ppm alone): 0.0 | 24 hr mort (Anopheles stephensi [1]; Table B1, 1 ppm alone): 40.0 | 48 hr mort (Anopheles stephensi [1]; Table B1, 1 ppm alone): 46.7 | KD (Anopheles stephensi [1]; Table B1, 1 ppm alone): 10.0 | 24 hr mort (Anopheles stephensi [1]; Table B1, 2 ppm alone): 66.7 | 48 hr mort (Anopheles stephensi [1]; Table B1, 2 ppm alone): 80.0 | KD (Anopheles stephensi [1]; Table B1, 2 ppm alone): 13.3 | 24 hr mort (Anopheles stephensi [1]; Table B2, 0.0625 ppm alone): 0.0 | 48 hr mort (Anopheles stephensi [1]; Table B2, 0.0625 ppm alone): 0.0 | KD (Anopheles stephensi [1]; Table B2, 0.0625 ppm alone): 0.0 | 24 hr mort (Anopheles stephensi [1]; Table B2, 0.125 ppm alone): 0.0 | 48 hr mort (Anopheles stephensi [1]; Table B2, 0.125 ppm alone): 0.0 | KD (Anopheles stephensi [1]; Table B2, 0.125 ppm alone): 0.0 | 24 hr mort (Anopheles stephensi [1]; Table B2, 0.25 ppm alone): 10.0 | 48 hr mort (Anopheles stephensi [1]; Table B2, 0.25 ppm alone): 10.0 | KD (Anopheles stephensi [1]; Table B2, 0.25 ppm alone): 0.0 | 24 hr mort (Anopheles stephensi [1]; Table B2, 0.5 ppm alone): 30.0 | 48 hr mort (Anopheles stephensi [1]; Table B2, 0.5 ppm alone): 50.0 | KD (Anopheles stephensi [1]; Table B2, 0.5 ppm alone): 0.0 | 24 hr mort (Anopheles stephensi [1]; Table B2, 1 ppm alone): 40.0 | 48 hr mort (Anopheles stephensi [1]; Table B2, 1 ppm alone): 70.0 | KD (Anopheles stephensi [1]; Table B2, 1 ppm alone): 0.0 | 24 hr mort (Anopheles stephensi [1]; Table B2, 2 ppm alone): 80.0 | 48 hr mort (Anopheles stephensi [1]; Table B2, 2 ppm alone): 80.0 | KD (Anopheles stephensi [1]; Table B2, 2 ppm alone): 0.0 | mortality at 10 mg/m2 (female mosquitoes; [3]): 24% | % Blood fed (female mosquitoes; Table B11, Rate 10 mg/m2): 31% | 24 hour % mort (adult female mosquitoes; Table B15, rates not given): 0% | 48 hour % mort (adult female mosquitoes; Table B15, rates not given): 0% | % 1 hour KD (adult female mosquitoes; Table B15, rates not given): 100% | % 1 hour KD (adult female mosquitoes; Table B16, 1ug/bottle): 100% | % 24 hour mortality (adult female mosquitoes; Table B16, 1ug/bottle): 0%

NC(=O)c1cnccc1C(F)(F)F [I.3]
24 hr mort (Anopheles stephensi [1]; [4]): 0.0 | 48 hr mort (Anopheles stephensi [1]; [4]): 0.0 | KD (Anopheles stephensi [1]; [4]): 23.3 | 24 hr mort (Anopheles stephensi [1]; [5]): 7.0 | 48 hr mort (Anopheles stephensi [1]; [5]): 10.0 | KD (Anopheles stephensi [1]; [5]): 60.0 | 24 hr mort (Anopheles stephensi [1]; [6]): 0.0 | 48 hr mort (Anopheles stephensi [1]; [6]): 0.0 | KD (Anopheles stephensi [1]; [6]): 73.0 | 24 hr mort (Anopheles stephensi [1]; [7]): 2.5 | 48 hr mort (Anopheles stephensi [1]; [7]): 2.5 | KD (Anopheles stephensi [1]; [7]): 17.5 | knockdown after 1 hour (Anopheles stephensi [1]; Table B10, Compound (I.3) alone 0.5 ppm): 0.0 | mortality at 10 mg/m2 (female mosquitoes; [3]): 68% | mortality at 10 mg/m2 (female mosquitoes; Table B13, 10 mg/m2, read-out: % 24 hour mortality): 72.2% | mortality at 10 mg/m2 (female mosquitoes; Table B14, 10 mg/m2, read-out: % 24 hour mortality): 68% | % Blood fed (female mosquitoes; Table B11, Rate 10 mg/m2): 3% | % 1 hour KD (female mosquitoes; Table B12, 10 mg/m2): 41.24% | % Blood fed (female mosquitoes; Table B12, 10 mg/m2): 3.09% | % Through net (female mosquitoes; Table B12, 10 mg/m2): 9.28% | % Blood fed (female mosquitoes; Table B13, 10 mg/m2): 18.56% | % Through net (female mosquitoes; Table B13, 10 mg/m2): 22.68% | % Blood fed (female mosquitoes; Table B14, 10 mg/m2): 2.9% | 24 hour % mort (adult female mosquitoes; Table B15, rates not given): 0% | 48 hour % mort (adult female mosquitoes; Table B15, rates not given): 0% | % 1 hour KD (adult female mosquitoes; Table B15, rates not given): 86.66% | % 1 hour KD (adult female mosquitoes; Table B16, 10ug/bottle): 100% | % 24 hour mortality (adult female mosquitoes; Table B16, 10ug/bottle): 0% | pest or weed control at 0.2 ppm (Aedes aegypti; Rate 0.2 PPM): 100% | pest or weed control at 2 ppm (Aedes aegypti; Rate 2 PPM): 100% | pest or weed control at 20 ppm (Aedes aegypti; Rate 20 PPM): 100% | pest or weed control at 200 ppm (Aedes aegypti; Rate 200 PPM): 100% | pest or weed control at 0.2 ppm (Anopheles stephensi [2]; Rate 0.2 PPM): 20% | pest or weed control at 2 ppm (Anopheles stephensi [2]; Rate 2 PPM): 20% | pest or weed control at 20 ppm (Anopheles stephensi [2]; Rate 20 PPM): 100% | pest or weed control at 200 ppm (Anopheles stephensi [2]; Rate 200 PPM): 100%
